According to patent US11986471B2, “Compounds and methods of use” (Tango Therapeutics, Inc., priority 2018, dated 2024):

What was measured:
HAP1 MTAP-deleted = test: SDMA in-cell western assay, HAP1 MTAP-deleted cell line; assay type: cell-based; conditions: for IC50: Homo sapiens, HAP1 MTAP-deleted cell line; for MTAP Intact/Deleted Ratio: IC50 ratio HAP1 MTAP-intact / HAP1 MTAP-deleted
Method in brief: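 Symmetric dimethylarginine (SDMA) levels were measured by in-cell western in MTAP-null HAP1 cells, one half of an MTAP-isogenic pair whose partner line expresses endogenous MTAP. Compound potency is reported as IC50.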

PRMT5 [1] = target: T1, PRMT5 (Homo sapiens, UniProt O14744); test: PRMT5 IC50 assay with no cofactor; assay type: biochemical
T1 construct: purchased Viva (custom protein)
T1 sequence (O14744 whole entry): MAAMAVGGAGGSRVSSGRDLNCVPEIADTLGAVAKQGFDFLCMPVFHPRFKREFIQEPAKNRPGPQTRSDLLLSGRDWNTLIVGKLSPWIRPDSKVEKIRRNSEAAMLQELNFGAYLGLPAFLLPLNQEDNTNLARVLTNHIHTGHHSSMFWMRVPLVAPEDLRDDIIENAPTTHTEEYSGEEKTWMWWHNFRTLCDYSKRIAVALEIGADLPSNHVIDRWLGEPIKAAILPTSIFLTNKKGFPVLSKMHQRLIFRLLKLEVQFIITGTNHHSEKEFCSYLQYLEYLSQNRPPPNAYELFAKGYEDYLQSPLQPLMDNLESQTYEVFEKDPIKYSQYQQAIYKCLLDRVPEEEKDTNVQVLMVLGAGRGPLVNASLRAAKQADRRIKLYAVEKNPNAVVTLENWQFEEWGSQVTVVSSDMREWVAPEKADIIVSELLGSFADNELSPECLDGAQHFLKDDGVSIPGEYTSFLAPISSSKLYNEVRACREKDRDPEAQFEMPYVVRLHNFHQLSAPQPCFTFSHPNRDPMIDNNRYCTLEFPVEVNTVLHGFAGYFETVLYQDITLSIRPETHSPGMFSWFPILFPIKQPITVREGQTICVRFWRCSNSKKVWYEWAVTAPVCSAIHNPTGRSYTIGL
T1 sequence (Q9BQA1 whole entry partner): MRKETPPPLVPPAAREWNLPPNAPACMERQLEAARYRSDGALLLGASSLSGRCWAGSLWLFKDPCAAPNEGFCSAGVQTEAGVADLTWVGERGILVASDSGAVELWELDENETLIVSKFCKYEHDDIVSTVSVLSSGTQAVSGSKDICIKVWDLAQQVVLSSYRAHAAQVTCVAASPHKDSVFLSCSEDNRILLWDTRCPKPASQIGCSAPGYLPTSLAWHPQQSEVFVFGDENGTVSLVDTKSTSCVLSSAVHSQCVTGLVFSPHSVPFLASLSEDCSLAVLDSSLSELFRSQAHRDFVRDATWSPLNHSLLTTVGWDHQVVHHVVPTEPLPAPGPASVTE
Method in brief: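 Ki conversion: SAM arm, Ki=IC50/1.5; MTA arm, Ki=IC50/13.5. No-cofactor arm reported as IC50 only. Selectivity expressed as Ki(SAM)/Ki(MTA).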

PRMT5 [2] = target: T1, PRMT5; test: PRMT5 IC50 assay in the presence of SAM as cofactor; assay type: biochemical
Method in brief: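 For the SAM-containing format, dividing IC50 by 1.5 yields Ki; for the MTA-containing format the divisor is 13.5. A third format without cofactor gives IC50 alone.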

PRMT5 [3] = target: T1, PRMT5; test: PRMT5 IC50 assay in the presence of MTA as cofactor; assay type: biochemical; conditions: for IC50: PRMT5, MTA as cofactor; for SAM/MTA Ratio: ratio between the Ki in the presence of SAM and the Ki in the presence of MTA
Method in brief: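 Each compound is tested on PRMT5 in the presence of SAM, of MTA, and without any cofactor. Ki values are then back-calculated using fixed factors of 1.5 (SAM) and 13.5 (MTA), and the two Ki values are compared as a ratio.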

HAP1 MTAP-intact = test: SDMA in-cell western assay, HAP1 MTAP-intact cell line; assay type: cell-based; conditions: Homo sapiens
Method in brief: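 Symmetric dimethylarginine (SDMA) levels were measured by in-cell western in an isogenic HAP1 pair, one expressing endogenous MTAP and one MTAP-null, and IC50 values were derived for each line. Compounds whose IC50 ratio between the lines is 3-fold or more are classed as MTAP-selective.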

SMILES | IC50 (HAP1 MTAP-deleted) | MTAP Intact/Deleted Ratio (HAP1 MTAP-deleted) | IC50 (PRMT5 [1]) | IC50 (PRMT5 [2]) | IC50 (PRMT5 [3]) | SAM/MTA Ratio (PRMT5 [3]) | IC50 (HAP1 MTAP-intact)
COCCN(C)c1cc(C(=O)NC[C@H](O)CN2CCc3c(ccc(OCc4ocnc4C)c3C)C2)cc(NC2CCC2)n1 [Compound 437, 2-(cyclobutylamino)-N-[(2S)-2-hydroxy-3-{5-methyl-6-[(4-methyl-1,3-oxazol-5-yl)methoxy]-1,2,3,4-tetrahydroisoquinolin-2-yl}propyl]-6-[(2-methoxyethyl)(methyl)amino]pyridine-4-carboxamide] | 1000 to 10000 nM | B* (an IC50 ratio greater than or equal to 3 fold but lower than 10 fold between the IC50 in the HAP1 MTAP-intact cell line and the HAP1 MTAP-deleted cell line) | ≥ 5000 nM | 50 to 500 nM | 50 to 500 nM | A (a Ki ratio greater than or equal to 10 fold between the Ki in the presence of SAM and the Ki in the presence of MTA) | ≥ 10000 nM
CCN(C)c1cc(C(=O)NC[C@H](O)CN2CCc3cc(OCc4cnco4)ccc3C2)cc(NC2CCC2)n1 [Compound 438, (S)-2-(cyclobutylamino)-6-(ethyl(methyl)amino)-N-(2-hydroxy-3-(6-(oxazol-5-ylmethoxy)-3,4-dihydroisoquinolin-2(1H)-yl)propyl)isonicotinamide] | 1000 to 10000 nM | C* (an IC50 ratio of less than 3 fold between the IC50 in the HAP1 MTAP-intact cell line and the HAP1 MTAP-deleted cell line) | ≥ 5000 nM | 500 to 5000 nM | 50 to 500 nM | A (a Ki ratio greater than or equal to 10 fold between the Ki in the presence of SAM and the Ki in the presence of MTA) | 1000 to 10000 nM
Cc1ncoc1COc1ccc2c(c1)CCN(C[C@@H](O)CNC(=O)c1cc(CC(C)C)nc(NC3CCC3)c1)C2 [Compound 439, 2-(cyclobutylamino)-N-[(2S)-2-hydroxy-3-{6-[(4-methyl-1,3-oxazol-5-yl)methoxy]-1,2,3,4-tetrahydroisoquinolin-2-yl}propyl]-6-(2-methylpropyl)pyridine-4-carboxamide] | < 1000 nM | C* (an IC50 ratio of less than 3 fold between the IC50 in the HAP1 MTAP-intact cell line and the HAP1 MTAP-deleted cell line) | ≥ 5000 nM | 50 to 500 nM | 50 to 500 nM | A (a Ki ratio greater than or equal to 10 fold between the Ki in the presence of SAM and the Ki in the presence of MTA) | 1000 to 10000 nM
Cc1ncoc1COc1ccc2c(c1C)CCN(C[C@@H](O)CNC(=O)c1ccc(OC3CCN(Cc4ccncc4)CC3)cc1)C2 [Compound 440, N-[(2S)-2-hydroxy-3-{5-methyl-6-[(4-methyl-1,3-oxazol-5-yl)methoxy]-1,2,3,4-tetrahydroisoquinolin-2-yl}propyl]-4-({1-[(pyridin-4-yl)methyl]piperidin-4-yl}oxy)benzamide] | 1000 to 10000 nM | B* (an IC50 ratio greater than or equal to 3 fold but lower than 10 fold between the IC50 in the HAP1 MTAP-intact cell line and the HAP1 MTAP-deleted cell line) | 500 to 5000 nM | 50 to 500 nM | 50 to 500 nM | A (a Ki ratio greater than or equal to 10 fold between the Ki in the presence of SAM and the Ki in the presence of MTA) | ≥ 10000 nM
O=C(NC[C@H](O)CN1CCc2c(ccc(OCc3cnco3)c2Cl)C1)c1ccnc(NC2CC3(C2)CC3(F)F)c1 (stereo partly drawn) [Compound 441] | 1000 to 10000 nM | C* (an IC50 ratio of less than 3 fold between the IC50 in the HAP1 MTAP-intact cell line and the HAP1 MTAP-deleted cell line) | 500 to 5000 nM | 50 to 500 nM | 50 to 500 nM | A (a Ki ratio greater than or equal to 10 fold between the Ki in the presence of SAM and the Ki in the presence of MTA) | ≥ 10000 nM
CCCC(=O)N1CCC(Nc2cc(C(=O)NC[C@H](O)CN3CCc4c(ccc(OCc5cnco5)c4Cl)C3)ccn2)CC1 [Compound 442, (S)-2-((1-butyrylpiperidin-4-yl)amino)-N-(3-(5-chloro-6-(oxazol-5-ylmethoxy)-3,4-dihydroisoquinolin-2(1H)-yl)-2-hydroxypropyl)isonicotinamide] | < 1000 nM | A* (an IC50 ratio greater than or equal to 10 fold between the IC50 in the HAP1 MTAP-intact cell line and the HAP1 MTAP-deleted cell line) | 500 to 5000 nM | 50 to 500 nM | 50 to 500 nM | A (a Ki ratio greater than or equal to 10 fold between the Ki in the presence of SAM and the Ki in the presence of MTA) | ≥ 10000 nM
CC(C)CC(=O)N1CCC(Nc2cc(C(=O)NC[C@H](O)CN3CCc4c(ccc(OCc5cnco5)c4Cl)C3)ccn2)CC1 [Compound 443, (S)—N-(3-(5-chloro-6-(oxazol-5-ylmethoxy)-3N-dihydroisoquinolin-2(1H)-yl)-2-hydroxypropyl)-2-((1-(3-methylbutanoyl)piperidin-4-yl)amino)isonicotinamide] | < 1000 nM | A* (an IC50 ratio greater than or equal to 10 fold between the IC50 in the HAP1 MTAP-intact cell line and the HAP1 MTAP-deleted cell line) | 500 to 5000 nM | 50 to 500 nM | 50 to 500 nM | A (a Ki ratio greater than or equal to 10 fold between the Ki in the presence of SAM and the Ki in the presence of MTA) | ≥ 10000 nM
Cc1ncoc1COc1ccc2c(c1C)CCN(C[C@@H](O)CNC(=O)c1cc(NC3COC3)nc(N3CCN(C(C)C)CC3)n1)C2 [Compound 444, N-[(2S)-2-hydroxy-3-{5-methyl-6-[(4-methyl-1,3-oxazol-5-yl)methoxy]-1,2,3,4-tetrahydroisoquinolin-2-yl}propyl]-6-[(oxetan-3-yl)amino]-2-[4-(propan-2-yl)piperazin-1-yl]pyrimidine-4-carboxamide] | 1000 to 10000 nM | C* (an IC50 ratio of less than 3 fold between the IC50 in the HAP1 MTAP-intact cell line and the HAP1 MTAP-deleted cell line) | ≥ 5000 nM | 50 to 500 nM | 50 to 500 nM | A (a Ki ratio greater than or equal to 10 fold between the Ki in the presence of SAM and the Ki in the presence of MTA) | ≥ 10000 nM
CCN(C)c1cc(C(=O)NC[C@H](O)CN2CCc3c(ccc(OCc4cnco4)c3Cl)C2)cc(NC2CCC2)n1 [Compound 445, (S)—N-(3-(5-chloro-6-(oxazol-5-ylmethoxy)-3N-dihydroisoquinolin-2(1H)-yl)-2-hydroxypropyl)-2-(cyclobutylamino)-6-(ethyl(methyl)amino)isonicotinamide] | ≥ 10000 nM | C* (an IC50 ratio of less than 3 fold between the IC50 in the HAP1 MTAP-intact cell line and the HAP1 MTAP-deleted cell line) | ≥ 5000 nM | 500 to 5000 nM | 50 to 500 nM | A (a Ki ratio greater than or equal to 10 fold between the Ki in the presence of SAM and the Ki in the presence of MTA) | ≥ 10000 nM
